The values below come from patent US20150125863A1, “CXCL5 AS A MARKER OF HORMONE ESCAPE IN PROSTATE CANCER” (Institut National de la Sante Recherche Medicale (INSERM), priority 2010, published 2015).

In data set [1] the test system is CXCL5 RNA levels in CWR-R1 cells. Description: CXCL5 RNA levels by real-time PCR in CWR-R1 cells. It is filed as cell-based. To be noted: CDFCS + 10^-8 M Dihydrotestosterone vs CDFCS (FIG. 5A).
Text: (§1) Results represent the mean±SD of 3 independent experiments.
as §1

In data set [2] the test system is CXCL5 RNA levels in LNCaP cells. To be noted: CDFCS + 10^-8 M Dihydrotestosterone vs CDFCS (FIG. 5B).
Experimental: CXCL5 RNA levels were measured by real-time PCR. CXCL5 levels in the presence of FCS were set to 1. Results represent the mean±SD of 3 independent experiments.
CWR-R1 and LNCaP cells were maintained in RPMI 1640 with Glutamax (Invitrogen, Carlsbad, USA), completed with 10% Foetal Calf Serum (FCS) and gentamycin. For androgen stimulations, cells were weaned off steroids before any experiment by culturing them in phenol red-free RPMI 1640 supplemented with 10% CDFCS (charcoal dextran-treated FCS) for 4 days.
Total RNA was prepared using TriReagent (Euromedex, Souffelweyersheim, France). The amount of RNA was estimated by spectrophotometry at 260 nm. Complementary DNAs (cDNA) were obtained from reverse transcription (RT) of 3 μg of total RNA in 13 μl of water RNase free. 1 μl of random hexanucleotides as primers (pd(N)6, 50 mM) in the presence of 1 μl of dNTPs (250 mM; Gibco BRL) were added to the RNA and incubated 5 minutes at 70° C. After, 5 μl of mix containing reverse transcriptase (1 μl) and reverse transcriptase buffer 5× (4 μl) were added to the RNA solution and incubated 1 h at 42° C. Real-time PCR quantification was then performed using a SYBR Green approach (Light Cycler; Roche) as previously described (Lucas et al. 2003 Biochem Biophys Res Commun 309:1011-1016). For each sample, CXCL5 mRNA levels were normalized with RS9 mRNA levels (reference gene).
A further data set concerns CWR-R1 cells. Description: In vitro proliferation of CWR-R1 cells. It is filed as cell-based. To be noted: CXCL5 1 or 50 ng/ml with 10^-5 M bicalutamide, 5 days (FIG. 6B). The method, then: CWR-R1 cells were cultured in whole fetal calf serum (FCS), in the absence or in the presence of […] of bicalutamide. CXCL5 RNA levels were measured by real-time PCR. […] Results represent the mean±SD of 3 independent experiments. B. CXCL5 enhances the proliferation of CWR-R1 cells both in the absence and in the presence of the anti-androgen bicalutamide. CWR-R1 cells were cultured in FCS. Some cells were treated with 10^-5 M bicalutamide. The cells were either treated with Ethanol vehicle (C) or with CXCL5 (1 or 50 ng/ml). Proliferation was quantified 5 days after treatment by counting the cells.
2.5×10^4 cells per well were seeded in triplicate in 24-well culture plates in complete growth media previously described. Cell numbers were determined every two days for 6 days by counting with a malassez slide or by measuring of luciferase activity. For proliferation in complete fetal calf serum, cells were maintained in […] with RPMI 1640. To test the effects of androgens, cells were maintained in phenol-red free RPMI 1640 medium supplemented with 10% FCS.

Data set [3] has as its system CXCL5 expression in PC-3 cells. Description: Blocking experiments with shCXCL5, CXCL5 levels by Elisa in PC-3 cells. It is filed as cell-based. The note with it: PC-3 cells transfected with shCXCL5 vector, compared to Non-Target shRNA Control Vector, after 4 days, Elisa (FIG. 9B). The method, then: (§2) A. PC-3 cells were grown for 4 days and either non treated (Control) or treated with goat serum (diluted 1/20) as isotype control antibody (Isotype) or with 0.5 μg/ml of CXCL5 antibody (CXCL5 Ab). Medium with or without treatment was changed at day 2. Results represent the mean of luciferase activity±SD after 4 days of 3 independent experiments. B, C. PC-3 cells were transfected with Non-Target shRNA Control (shCt) or shCXCL5 vector. 4 days later, the medium was collected and CXCL5 levels were measured by Elisa (B). The number of cells was counted on day 4 (C). A representative experiment is shown here.
(§3) 10^5 PC-3 cells plated in 6 well plated in 10% FCS with RPMI 1640 were transfected with 4 μg of Non-Target shRNA Control Vector (ShC002, Mission Library, Sigma-Aldrich) or shCXCL5 vector (SHCLND-NM_002994-TRCN0000057934NM_002994.3-304s1c1TRC1, Sequence SEQ ID NO: 6: […] Mission Library, Sigma-Aldrich) using Jet-PEI® protocol in each well. 8 h after transfection medium was changed. CXCL5 secretion was quantified 48 h later in conditioned medium by ELISA (Duoset, DY254, R&D system). Cells were counted 4 days after transfection using malassez slide.

Another data set deals with PC-3 cells. The data set is described as follows: Blocking experiments with shCXCL5, PC-3 cell proliferation. It is filed as cell-based. To be noted: PC-3 cells transfected with shCXCL5 vector, cells counted on day 4 (FIG. 9C). The method, then: as §2, §3

Take `C[C@]12CCC(=O)C[C@@H]1CC[C@@H]1[C@@H]2CC[C@]2(C)[C@@H](O)CC[C@@H]12` [dihydrotestosterone]: the “effect on levels of CXCL5 RNA” value in data set [1] and in data set [2] was “partially reduced” throughout.

Take “recombinant CXCL5: recombinant C-X-C motif chemokine 5 added to CWR-R1 cells”: the “effect on the inhibition of proliferation by bicalutamide” value with CWR-R1 cells is reported as “partially alleviate”.

“shCXCL5: shRNA vector against CXCL5, SEQ ID NO: 6, Mission Library, Sigma-Aldrich (DNA CCGGGATCAGTAATCTGCAAGTGTTCTCGAGAACACTTGCAGATTACTGATCTTTTTG)”: the CXCL5 expression result in data set [3] was “strongly reduced”. Moreover, the “inhibition of proliferation of PC-3 cells” value in the data set with PC-3 cells is on record as “more than 10 fold”.
